# Experimental data: patent publication US20040018515A1, “Compositions selective for adenosine diphosphate and methods of using same” (priority 2002, published 2004)
# Columns and labels:
# Format in all cases: biochemical
# [1] = system: ppERK; assay: 96-well high throughput screening (HTS) ppERK kinase assay
# Procedure: A 96-well high throughput screening (HTS) ppERK kinase assay was constructed using the ADP F01 aptamer in an SPA. […] This HTS assay was used to assess the relative inhibitory activity of 100 test compounds at 10 μM concentration (FIG. 37). This HTS assay was performed three times (FIGS. 37A, 37B and 37C).
# [2] = system: ppERK; assay: Minimized ADP aptamer F01-based kinase SPA; design: Initial Rate: unit not given here; conditions: for inhibition of ppERK activity (decreased signal in the ADP SPA): non-biotinylated minimized ADP aptamer on capture probe, FIG. 44-46
# Procedure: An ADP aptamer will concentrate the tritiated ADP released by kinase on the surface of the flash plate and generate a signal detectable in a Topcount scintillation counter. For the study presented, minimized ADP aptamer (JD37.98A) (FIG. 42, SEQ ID NO: 1 19) was directly 3′-biotinylated and immobilized onto NEN streptavidin flashplates. Specifically, select assay wells were incubated with 5 pmol of JD37.98A directly 3′-biotinylated aptamer in 25 μl of PBS Buffer:BupH (0.05% tRNA, 0.025% Tween 20) with shaking at 650 RPM for 30 min. Unbound biotinylated aptamer probe was rinsed from the plate with three 1×PBS washes and dried as previously described. In following experiments the production of ^3H-ADP from ^3H-ATP was detected from ppERK using streptavidin coated flash plate wells that were incubated with 60 pmol of MK08.112A biotinylated capture probe in 30 μl of PBS Buffer:BupH (0.05% tRNA, 0.025% Tween 20) for 15 min with shaking at 650 RPM. Unbound probe was removed from the plate with three 1×PBS washes and blotted dry as described above. JD37.98A (150 pmol; not biotinylated) minimized ADP aptamer transcribed with capture probe sequence was added to select wells in 30 μl 1×PBS and incubated for 30 min with shaking at shaking at 650 RPM, Unbound probe was removed with three PBS washes and the plates were blotted dry as described above. Kinase reactions were carried out in a 30 μl final sample volume as follows. Stock 15 nM ppERK enzyme solution was prepared in selection buffer and incubated for 10 min at room temperature. Kinase test reactions were initiated by adding 1 μl test sample, e.g., inhibitor, to 14 μl selection buffer containing 1 mM DTT, […], and 2.7 μM ^3H-ATP and then combining this mixture with an equal volume of 15 nM ppERK enzyme solution. Kinase test reaction was immediately transferred to the appropriate test well and the reaction monitored on a TopCount, ^3H SPA scintillation counter over 900 min.
# [3] = system: ppERK; assay: ADP aptamer F01-based kinase SPA; conditions: ADP SPA with ADP F01 aptamer; 3H-ATP and MBP; FIG. 34, 35
# Source text: An ADP aptamer will concentrate the tritiated ADP released by kinase on the surface of the flash plate and generate a scintillation proximity signal detectable in a Topcount instrument.
# [4] = FIG. 37A, test compounds at 10 μM, 40 nM ppERK, 1.35 μM 3H-ATP, 10 μM MBP
# [5] = Concentration 0.1 (unit not given)
# [6] = Concentration 0.2 (unit not given)
# [7] = Concentration 1 (unit not given)
# [8] = Concentration 5 (unit not given)
# [9] = Concentration 10 (unit not given)
# [10] = Concentration 0.05 (unit not given)
# [11] = Concentration 0.5 (unit not given)
# [12] = Concentration 2.5 (unit not given)
# [13] = Concentration 1.8 (unit not given)
# [14] = Concentration 3.6 (unit not given)
# [15] = Concentration 18 (unit not given)
# [16] = Concentration 90 (unit not given)
# [17] = Concentration 180 (unit not given)
compound,measurement,setting,value
CN[C@@H]1C[C@H]2O[C@@](C)([C@@H]1OC)n1c3ccccc3c3c4c(c5c6ccccc6n2c5c31)C(=O)NC4 [staurosporine],reaction rate in the HTS ppERK assay,[1]; [4],significantly decreased the reaction rate
same,reaction rate in the HTS ppERK assay,[1]; FIG. 37B (ADP-HH screening),significantly decreased the reaction rate
same,reaction rate in the HTS ppERK assay,[1]; FIG. 37C (ADP-SPA screening (2nd)),significantly decreased the reaction rate
same,20% Reacted Time,[2]; [5],52.4 min
same,Initial Rate,[2]; [5],45.419
same,Saturation Time,[2]; [5],262 min
same,20% Reacted Time,[2]; [6],70.4 min
same,Initial Rate,[2]; [6],40.907
same,Saturation Time,[2]; [6],352 min
same,20% Reacted Time,[2]; [7],52.4 min
same,Initial Rate,[2]; [7],23.708
same,Saturation Time,[2]; [7],262 min
same,20% Reacted Time,[2]; [8],110 min
same,Initial Rate,[2]; [8],10.855
same,Saturation Time,[2]; [8],550 min
same,20% Reacted Time,[2]; [9],110 min
same,Initial Rate,[2]; [9],5.9375
same,Saturation Time,[2]; [9],550 min
Nc1ncnc2c1c(I)cn2[C@@H]1O[C@H](CO)[C@@H](O)[C@H]1O [ITU],inhibition of ppERK,[3],concentration-dependent inhibition
same,reaction rate in the HTS ppERK assay,[1]; [4],significantly decreased the reaction rate
same,20% Reacted Time,[2]; [10],57.8 min
same,Initial Rate,[2]; [10],46.949
same,Saturation Time,[2]; [10],289 min
same,20% Reacted Time,[2]; [5],59.6 min
same,Initial Rate,[2]; [5],48.324
same,Saturation Time,[2]; [5],298 min
same,20% Reacted Time,[2]; [11],59.6 min
same,Initial Rate,[2]; [11],36.486
same,Saturation Time,[2]; [11],298 min
same,20% Reacted Time,[2]; [12],83 min
same,Initial Rate,[2]; [12],19.275
same,Saturation Time,[2]; [12],415 min
same,20% Reacted Time,[2]; [8],113.6 min
same,Initial Rate,[2]; [8],10.772
same,Saturation Time,[2]; [8],568 min
same,inhibition of ppERK activity (decreased signal in the ADP SPA),[2],concentration-dependent inhibition
Nc1nccc(-c2c(-c3ccc(F)cc3)ncn2C2CCNCC2)n1 [SB220025],inhibition of ppERK,[3],concentration-dependent inhibition
same,20% Reacted Time,[2]; [13],92 min
same,Initial Rate,[2]; [13],23.883
same,Saturation Time,[2]; [13],460 min
same,20% Reacted Time,[2]; [14],101 min
same,Initial Rate,[2]; [14],20.427
same,Saturation Time,[2]; [14],505 min
same,20% Reacted Time,[2]; [15],117.2 min
same,Initial Rate,[2]; [15],4.716
same,Saturation Time,[2]; [15],586 min
same,20% Reacted Time,[2]; [16],128 min
same,Initial Rate,[2]; [16],2.8722
same,Saturation Time,[2]; [16],640 min
same,20% Reacted Time,[2]; [17],180 min
same,Initial Rate,[2]; [17],2.3262
same,Saturation Time,[2]; [17],900 min
same,inhibition of ppERK activity (decreased signal in the ADP SPA),[2],concentration-dependent inhibition
